Measured values as given in patent US6303349A, “Esterase and methods for the production of optically active chroman compounds” (Mitsui Chemicals, Inc., priority 1997, dated 2001).
Values belong to the molecule of their own block, whether it stands above or below them.

Tested on: esterase from Pseudonocardia thermophila FERM BP-6275, homogeneously purified (Example 2)
Assay: Effect of inhibitors on the purified esterase (remaining hydrolysis of racemic 6-aminochroman-3-acetic acid methyl ester)
Type: biochemical

Relative activity (inhibitor 0.1 mM, pre-incubated 30° C. 30 min, pH 7.2, reaction 55° C. 30 min, 100% = activity without inhibitors): 102%
Structure (SMILES): OC(CS)C(O)CS (stereo not shown) [DTT]

Structure (SMILES): O=C(O)CN(CCN(CC(=O)O)CC(=O)O)CC(=O)O [EDTA]
Relative activity (pH 7.2, 30 min, 5000 µM): 103

Structure (SMILES): O=S(=O)(F)Cc1ccccc1 [PMSF, phenylmethylsulfonyl fluoride]
Relative activity (pH 7.2, 30 min, 100 µM): 84 | remaining enzyme activity (pH 7.2, 30 min, 100 µM): 85%
